In one test the test system is A-375. The experiment in a line: Cytotoxicity against human A375 cells assessed as reduction in cell viability incubated for 96 hrs by SRB assay. The class given is functional, cell-based. The conditions noted are these: A-375, 96 h.
In the next test the test system is HT-29. The experiment in a line: Cytotoxicity against human HT-29 cells assessed as reduction in cell viability incubated for 96 hrs by SRB assay. Type of test: functional, cell-based. The settings on record: HT-29, 96 h.
A further test relates to FaDu. The test is described as follows: Cytotoxicity against human FADU cells assessed as reduction in cell viability incubated for 96 hrs by SRB assay. Type of test: functional, cell-based. (In SRB staining, fixed cells bind dye roughly in proportion to their protein.)
The test system of a further test is NIH3T3. The test is described as follows: Cytotoxicity against mouse NIH/3T3 cells assessed as reduction in cell viability incubated for 96 hrs by SRB assay. The conditions noted are these: NIH3T3, 96 h. Type of test: cell-based.
In another test the test system is MCF7. The experiment in a line: Cytotoxicity against human MCF7 cells assessed as reduction in cell viability incubated for 96 hrs by SRB assay. Type of test: functional, cell-based. The conditions noted are these: MCF7, 96 h.
The next test deals with A2780. The test is described as follows: Cytotoxicity against human A2780 cells assessed as reduction in cell viability incubated for 96 hrs by SRB assay. The settings on record: A2780, 96 h. Type of test: functional, cell-based.

The EC50 is the concentration giving half of the maximal effect.

Take `C=C(C)[C@@H]1CC[C@]2(CO)CC[C@]3(C)[C@H](CC[C@@H]4[C@@]5(C)CC[C@H](OC(C)=O)C(C)(C)[C@@H]5CC[C@]43C)[C@@H]12`: the EC50 in the test with A-375, in the test on HT-29, in the test with FaDu and with NIH3T3 was greater than 30 µM in each case.
As for `CC(=O)O[C@H]1CC[C@]2(C)[C@H]3CC=C4[C@@H]5[C@@H](C)[C@H](C)CC[C@]5(C(=O)NCCN)CC[C@@]4(C)[C@]3(C)CC[C@H]2C1(C)C`, the 50% effective concentration (EC50) in the test on HT-29 worked out at 1.8 µM; with MCF7, 2 µM; in the test on A2780, 2.3 µM; in the test with FaDu, 3.7 µM; with NIH3T3, 2.6 µM.
On to `CC(=O)O[C@H]1CC[C@]2(C)[C@H]3CC=C4[C@@H]5[C@@H](C)[C@H](C)CC[C@]5(C(=O)N5CCNCC5)CC[C@@]4(C)[C@]3(C)CC[C@H]2C1(C)C`, for which the EC50 in the test with FaDu stood at 1.9 µM.
The same measure, in the same setting: to `CC(=O)O[C@H]1CC[C@]2(C)[C@H]3CC=C4[C@@H]5CC(C)(C)CC[C@]5(C(=O)N5CCNCC5)CC[C@@]4(C)[C@]3(C)CC[C@H]2C1(C)C` belongs 1.6 µM; to `C=C(C)[C@@H]1CC[C@]2(C(=O)N3CCNCC3)CC[C@]3(C)[C@H](CC[C@@H]4[C@@]5(C)CC[C@H](OC(C)=O)C(C)(C)[C@@H]5CC[C@]43C)[C@@H]12`, 1.3 µM.
With `CC(=O)O[C@H]1CC[C@]2(C)[C@H]3CC=C4[C@@H]5CC(C)(C)CC[C@]5(C(=O)NCCN)CC[C@@]4(C)[C@]3(C)CC[C@H]2C1(C)C`, the half-maximal effective concentration (EC50) in the test on HT-29 was 2 µM; with MCF7 it was 1.7 µM; in the test with A2780, 3.1 µM; with FaDu, 4.3 µM; in the test with NIH3T3, 2.1 µM.
Take `CC(=O)O[C@H]1CC[C@]2(C)[C@H]3CC=C4[C@@H]5[C@@H](C)[C@H](C)CC[C@]5(C(=O)N5CCN(C(=O)CCC6=[N+]7C(=Cc8c(C)cc(C)n8[B-]7(F)F)C=C6)CC5)CC[C@@]4(C)[C@]3(C)CC[C@H]2C1(C)C`: the half-maximal effective concentration (EC50) in the test on A-375 was 21.6 µM; with HT-29, greater than 30 µM; in the test with MCF7, 24.4 µM; in the test with A2780, greater than 30 µM; in the test with FaDu it was greater than 30 µM; in the test on NIH3T3 it was greater than 30 µM.
With `C=C(C)[C@@H]1CC[C@]2(C(=O)NCCNC(=O)CCC3=[N+]4C(=Cc5c(C)cc(C)n5[B-]4(F)F)C=C3)CC[C@]3(C)[C@H](CC[C@@H]4[C@@]5(C)CC[C@H](OC(C)=O)C(C)(C)[C@@H]5CC[C@]43C)[C@@H]12`, the concentration giving a half-maximal response (EC50) in the test on A-375 was greater than 30 µM; in the test on HT-29, greater than 30 µM; with MCF7, 11.3 µM; in the test with A2780, greater than 30 µM; in the test with FaDu, greater than 30 µM; in the test on NIH3T3, greater than 30 µM.
Regarding `C=C(C)[C@@H]1CC[C@]2(C(=O)NCCN)CC[C@]3(C)[C@H](CC[C@@H]4[C@@]5(C)CC[C@H](OC(C)=O)C(C)(C)[C@@H]5CC[C@]43C)[C@@H]12`, the EC50 with HT-29 came to 1 µM; in the test with MCF7, 1.3 µM; in the test with A2780, 1.4 µM; in the test with FaDu it was 1.2 µM; in the test with NIH3T3, 1.4 µM.
As for `C=C(C)[C@@H]1CC[C@]2(C(=O)N3CCN(C(=O)CCC4=[N+]5C(=Cc6c(C)cc(C)n6[B-]5(F)F)C=C4)CC3)CC[C@]3(C)[C@H](CC[C@@H]4[C@@]5(C)CC[C@H](OC(C)=O)C(C)(C)[C@@H]5CC[C@]43C)[C@@H]12`, the concentration giving a half-maximal response (EC50) in the test on A-375, in the test on HT-29, in the test with MCF7, in the test on A2780, in the test on FaDu and in the test on NIH3T3 was greater than 30 µM throughout.
Regarding `CC(=O)O[C@H]1CC[C@]2(C)[C@H]3C(=O)C=C4[C@@H]5C[C@@](C)(C(=O)NCCN)CC[C@]5(C)CC[C@@]4(C)[C@]3(C)CC[C@H]2C1(C)C`, the concentration for a half-maximal effect (EC50) in the test with HT-29 was 4.3 µM; in the test with MCF7 it was 3.2 µM; in the test on A2780, 2 µM; with FaDu, 5.7 µM; in the test with NIH3T3 it was 4.3 µM.
With `CC(=O)O[C@H]1CC[C@]2(C)[C@H]3C(=O)C=C4[C@@H]5C[C@@](C)(C(=O)N6CCN(C(=O)CCC7=[N+]8C(=Cc9c(C)cc(C)n9[B-]8(F)F)C=C7)CC6)CC[C@]5(C)CC[C@@]4(C)[C@]3(C)CC[C@H]2C1(C)C`, the EC50 in the test with A-375 is 8.3 µM; in the test on HT-29 it was greater than 30 µM; in the test on MCF7, 7.9 µM; with A2780, 7.8 µM; in the test with FaDu, 8.6 µM; with NIH3T3, 9.1 µM.
For the compound `CC(=O)O[C@H]1CC[C@]2(C)[C@H]3C(=O)C=C4[C@@H]5C[C@@](C)(C(=O)N6CCNCC6)CC[C@]5(C)CC[C@@]4(C)[C@]3(C)CC[C@H]2C1(C)C`, the EC50 with HT-29 came to 4.4 µM; in the test with MCF7, 8.4 µM; with A2780 it was 8.2 µM; in the test on FaDu it was 8.7 µM; in the test on NIH3T3, 8.7 µM.
For the compound `CC(=O)O[C@H]1CC[C@]2(C)[C@H]3CC=C4[C@@H]5CC(C)(C)CC[C@]5(C(=O)NCCNC(=O)CCC5=[N+]6C(=Cc7c(C)cc(C)n7[B-]6(F)F)C=C5)CC[C@@]4(C)[C@]3(C)CC[C@H]2C1(C)C`, the concentration giving a half-maximal response (EC50) with A-375 was 4.3 µM; in the test with HT-29 it was greater than 30 µM; in the test on MCF7, 2.3 µM; with A2780, 10.3 µM; in the test with FaDu, 7 µM; in the test on NIH3T3, 3.4 µM.
With `C=C(C)[C@@H]1CC[C@]2(COC(=O)CCC3=[N+]4C(=Cc5c(C)cc(C)n5[B-]4(F)F)C=C3)CC[C@]3(C)[C@H](CC[C@@H]4[C@@]5(C)CC[C@H](OC(C)=O)C(C)(C)[C@@H]5CC[C@]43C)[C@@H]12`, the half-maximal effective concentration (EC50) is greater than 30 µM in the test with A-375; greater than 30 µM in the test on HT-29; 28.9 µM in the test with MCF7; greater than 30 µM in the test with A2780; greater than 30 µM with FaDu; greater than 30 µM in the test on NIH3T3.
As for `CC(=O)O[C@H]1CC[C@]2(C)[C@H]3C(=O)C=C4[C@@H]5C[C@@](C)(C(=O)NCCNC(=O)CCC6=[N+]7C(=Cc8c(C)cc(C)n8[B-]7(F)F)C=C6)CC[C@]5(C)CC[C@@]4(C)[C@]3(C)CC[C@H]2C1(C)C`, the EC50 in the test on A-375 is 23.9 µM; with HT-29, 26.5 µM; in the test on MCF7 it was 7.2 µM; with A2780 it was 18.4 µM; in the test on FaDu it was greater than 30 µM; in the test on NIH3T3, greater than 30 µM.
On to `Cc1cc(C)n2c1C=C1C=CC(CCC(=O)O)=[N+]1[B-]2(F)F`, for which the EC50 in the test on A-375, in the test on HT-29, in the test on MCF7, with A2780, in the test on FaDu and in the test with NIH3T3 was greater than 30 µM throughout.
On to `CC(=O)O[C@H]1CC[C@]2(C)[C@H]3CC=C4[C@@H]5CC(C)(C)CC[C@]5(C(=O)N5CCN(C(=O)CCC6=[N+]7C(=Cc8c(C)cc(C)n8[B-]7(F)F)C=C6)CC5)CC[C@@]4(C)[C@]3(C)CC[C@H]2C1(C)C`, for which the EC50 in the test on A-375 was 29.8 µM; with HT-29 it was greater than 30 µM; in the test with MCF7, greater than 30 µM; in the test on A2780 it was greater than 30 µM; in the test with FaDu, greater than 30 µM; in the test on NIH3T3, greater than 30 µM.
In the case of `CC(=O)O[C@H]1CC[C@]2(C)[C@H]3CC=C4[C@@H]5[C@@H](C)[C@H](C)CC[C@]5(C(=O)NCCNC(=O)CCC5=[N+]6C(=Cc7c(C)cc(C)n7[B-]6(F)F)C=C5)CC[C@@]4(C)[C@]3(C)CC[C@H]2C1(C)C`, the EC50 with A-375 was 4 µM; with HT-29, greater than 30 µM; with MCF7, 2.2 µM; in the test on A2780, 8.7 µM; with FaDu, 5.7 µM; in the test with NIH3T3, 3 µM.
For the compound `C=C(C)[C@@H]1CC[C@]2(COC(C)=O)CC[C@]3(C)[C@H](CC[C@@H]4[C@@]5(C)CC[C@H](OC(=O)CCC6=[N+]7C(=Cc8c(C)cc(C)n8[B-]7(F)F)C=C6)C(C)(C)[C@@H]5CC[C@]43C)[C@@H]12`, the EC50 in the test on HT-29 was determined as 3.1 µM; with MCF7, 4.3 µM; with A2780 it was 2.7 µM; in the test on FaDu, 4.7 µM; with NIH3T3 it was 9.2 µM.
As for `C=C(C)[C@@H]1CC[C@]2(COC(C)=O)CC[C@]3(C)[C@H](CC[C@@H]4[C@@]5(C)CC[C@H](OC(C)=O)C(C)(C)[C@@H]5CC[C@]43C)[C@@H]12` [BETULIN DIACETATE], the half-maximal effective concentration (EC50) in the test with A-375, in the test with HT-29, in the test on MCF7, with A2780, in the test with FaDu and in the test on NIH3T3 was greater than 30 µM in each case.
For the compound `C=C(C)[C@@H]1CC[C@]2(CO)CC[C@]3(C)[C@H](CC[C@@H]4[C@@]5(C)CC[C@H](O)C(C)(C)[C@@H]5CC[C@]43C)[C@@H]12` [BETULIN], the EC50 in the test on A-375, in the test on HT-29, with MCF7, in the test on A2780, with FaDu and in the test with NIH3T3 was greater than 30 µM throughout.
For `CC1(C)[C@@H](O)CC[C@]2(C)[C@H]3C(=O)C=C4[C@@H]5C[C@@](C)(C(=O)O)CC[C@]5(C)CC[C@@]4(C)[C@]3(C)CC[C@@H]12` [ENOXOLONE], in the test on FaDu, the concentration giving a half-maximal response (EC50) was greater than 30 µM.
Consider `CC1(C)CC[C@]2(C(=O)O)CC[C@]3(C)C(=CC[C@@H]4[C@@]5(C)CC[C@H](O)C(C)(C)[C@@H]5CC[C@]43C)[C@@H]2C1` [OLEANOLIC_ACID], for which the concentration for a half-maximal effect (EC50) with A2780 and in the test with FaDu was greater than 30 µM each time.
Take `C[C@H]1[C@H](C)CC[C@]2(C(=O)O)CC[C@]3(C)C(=CC[C@@H]4[C@@]5(C)CC[C@H](O)C(C)(C)[C@@H]5CC[C@]43C)[C@H]12` [URSOLIC ACID]: the half-maximal effective concentration (EC50) in the test on NIH3T3 stood at 13.1 µM.

The values are drawn from ChEMBL document CHEMBL4373745, “Design, synthesis and cytotoxicity of BODIPY FL labelled triterpenoids” (Eur J Med Chem, 2020).
